Data on 15 molecules can be found in article PMC12113668, “Discovery of Potential Scaffolds for Methionine Adenosyltransferase 2A (MAT2A) Inhibitors: Virtual Screening, Synthesis, and Biological Evaluation” (Molecules, 2025).

The target of one data set is MAT2A (Homo sapiens, UniProt P31153). Description: MAT2A enzymatic assay (colorimetric Phosphate Assay Kit-PiColorLock). Conditions: for Maximum Inhibition (%): MAT2A enzymatic assay; for IC50: mean ± SD, at least three independent experiments, NA: no activity at 10 μM; for MAT2A inhibitory activity (in words): up to 10 μM. The format is biochemical. Here is the method: The inhibition of MAT2A by each compound was determined using the colorimetric Phosphate Assay Kit-PiColorLock (#ab270004) as described previously. […] Assay measurements were performed in 1X buffer containing 50 mM Tris, 50 mM KCl, 10 mM MgCl2, and 0.05% Brij-35 (pH 8.0) in a final assay volume of 5 μL. A total of 2.5 μL of MAT2A protein with a final concentration of 20 μg/mL was added to each well of a 384 well assay plate containing 100 nL of each concentration of test compound dissolved in DMSO and incubated for 30 min at room temperature. ATP (100 μM final concentration) and L-Met (100 μM final concentration) were subsequently added and incubated for 30 min at room temperature. Then 20 μL of the phosphate assay kit substrate was added to each well, incubated at room temperature for 30 min, and then the absorbance was measured at 620 nm on a plate reader.

The next data set concerns MTAP−/− HCT116 cells. Description: Cellular antiproliferation assay (CCK8), MTAP-deleted HCT116. Format: cell-based. Particulars: Homo sapiens, HCT-116, 72 h, mean ± SD. Here is the method: Cell viability assays were performed using Cell Counting Kit-8 (CCK8). Briefly, the MTAP-deleted HCT116 cells (Horizon) were plated at 1000 cells per well in 96-well plates in RPMI-1640 medium with 10% FBS and 1% PS, and then incubated at 37 °C under a 5% CO2 atmosphere overnight. The stock solutions were serially diluted 3-fold in DMSO to obtain an eight-point dilution curve with final compound concentrations and test compounds added. After 72 h, 10 μL CCK-8 dye was added in each well and the cells were incubated for 2–4 h. […] was measured at 450 nm. Dose response curves were analyzed in GraphPad Prism 8.

The test system of a further data set is Parental HCT116 cells. Description: Cellular antiproliferation assay (CCK8), parental HCT116. Conditions: Homo sapiens, HCT-116, 72 h, mean ± SD. Format: cell-based.
A short description of data set [1]: Cytotoxicity of new compounds in HEK293A. Format: cell-based. Conditions: human, HEK293A cells.
In data set [2] the test system is HCT116 MTAP-deleted xenograft tumor. Format: in vivo. Particulars: for tumor growth inhibition (TGI): 30 mg/kg orally q.d. for 19 days; for tumor growth inhibition (TGI) / T/C (%) relative tumor proliferation rate: BALB/c nude mice, HCT116 MTAP−/− xenograft; for T/C (%) relative tumor proliferation rate / Tumor volume / Histopathological analysis (H&E staining) of tumor tissues: 30 mg/kg orally q.d.; for Tumor volume: mean ± SD, at end of study; for Histopathological analysis (H&E staining) of tumor tissues: xenograft tumor tissue. Here is the method:
The antitumor efficacy of compound 17 was evaluated in female BALB/c nude mice using a standardized tumor xenotransplantation model. Animals were maintained under specific-pathogen-free (SPF) conditions, and all experimental procedures adhered to institutional animal care protocols approved by the Institute of Radiation Medicine, the Chinese Academy of Medical Sciences, and Peking Union Medical College, complying with national guidelines for humane treatment. For tumor induction, 2 × 10^6 HCT-116 MTAP^−/− cells suspended in PBS were subcutaneously implanted into the right hind flank. Following a 7-day engraftment period, mice were stratified into three cohorts (n = 5/group) via block randomization performed by an independent researcher to minimize selection bias. Compound 17 was administered orally at 30 mg/kg once daily, using 5% DMSO + 10% Solutol HS-15 + 85% saline as the vehicle solution. The positive control AG-270 was dosed at the same regimen (30 mg/kg, orally, once daily) with identical vehicle composition. Tumor progression was monitored every other day through digital caliper measurements, with volumes calculated using the ellipsoid approximation formula: V = 0.5 × length × width^2.

“And” between values parts separate entries of the source, which are not always exact repeats. Equal entries are not always repeated. “Also recorded” adds a separate entry of the source.

What is called IC50 is the concentration that inhibits the measured activity by half.

Sequence of MAT2A (P31153 whole entry): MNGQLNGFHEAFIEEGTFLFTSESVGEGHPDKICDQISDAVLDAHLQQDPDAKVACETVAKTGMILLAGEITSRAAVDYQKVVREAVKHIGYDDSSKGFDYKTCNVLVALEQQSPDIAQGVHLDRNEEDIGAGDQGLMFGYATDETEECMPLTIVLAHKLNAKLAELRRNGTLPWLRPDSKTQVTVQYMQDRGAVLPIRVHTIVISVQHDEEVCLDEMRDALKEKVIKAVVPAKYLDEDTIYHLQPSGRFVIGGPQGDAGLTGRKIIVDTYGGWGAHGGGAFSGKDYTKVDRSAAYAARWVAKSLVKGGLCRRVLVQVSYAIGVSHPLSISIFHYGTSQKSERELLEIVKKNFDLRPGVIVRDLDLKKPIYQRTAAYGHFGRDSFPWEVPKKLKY

In the case of `COc1ccc(NC(=O)c2ccc3scnc3c2)cc1` [Compound 15, N-(4-Methoxyphenyl)benzo[D]thiazole-5-carboxamide], the “Maximum Inhibition (%)” value at MAT2A worked out at 80%. Moreover, the concentration for half-maximal inhibition (IC50) against MAT2A is 0.91 ± 0.09 µM; in the data set with MTAP−/− HCT116 cells, 2.2 ± 0.1 µM; in the data set with Parental HCT116 cells, over 10 µM; in data set [1], over 100 µM.
Turning to `COc1ccc(NC(=O)c2cccc3ncsc23)cc1` [Compound 16, N-(4-Methoxyphenyl)benzo[D]thiazole-7-carboxamide], the “MAT2A inhibitory activity (in words)” value on MAT2A was “complete loss of binding affinity; also recorded: abolished activity entirely”. In data set [1], this molecule showed an IC50 of over 100 µM.
Take `CCn1cc(C(=O)Nc2ccc(OC)cc2)c2cccnc21` [Compound 12]: on MAT2A, the “Maximum Inhibition (%)” value worked out at 86% and the IC50 was determined as 2.9 ± 0.2 µM. The molecule further gave a 50% inhibitory concentration (IC50) in data set [1] of over 100 µM.
As to `CCOC(=O)c1c(C)c(C(=O)Nc2ccc(OC)cc2)c(C)n1C` [Compound 11], the IC50 against MAT2A was 15.6 ± 3.1 µM; in data set [1], over 100 µM.
On to `CCOC(=O)c1[nH]c2c(c1-c1ccccc1)C(=O)CC(c1ccccc1)C2` (centres unmarked) [Compound 8, Ethyl 4-Oxo-3,6-diphenyl-4,5,6,7-tetrahydro-1H-indole-2-carboxylate], for which the “Maximum Inhibition (%)” value on MAT2A is listed as 47%. The IC50 at MAT2A was 6.8 ± 0.2 µM; in data set [1], over 100 µM.
For the molecule `CCOC(=O)c1[nH]c2c(c1Cc1ccccc1)C(=O)CC(c1ccccc1)C2` (centres unmarked) [Compound 9, Ethyl 3-Benzyl-4-oxo-6-phenyl-4,5,6,7-tetrahydro-1H-indole-2-carboxylate], the “MAT2A inhibitory activity (in words)” value on MAT2A was “no detectable activity; also recorded: inactive”. The molecule further registered an IC50 in data set [1] of over 100 µM.
Taken in the same sequence, the figures for `Cn1cc(C(=O)Nc2ccc3c(c2)OCO3)c2ccccc21` [Compound 14] were “completely lost its binding affinity; also recorded: abolished activity entirely” and over 100 µM.
With `COc1ccc(NC(=O)c2cn(C)c3ccccc23)cc1` [Compound 13, N-(4-Methoxyphenyl)-1-methyl-1H-indole-3-carboxamide], on MAT2A, the “Maximum Inhibition (%)” value was determined as 82% and the IC50 was 2.1 ± 0.6 µM. This molecule also displayed an IC50 in data set [1] of over 100 µM.
Take `CCOC(=O)c1[nH]c2c(c1Cc1ccccc1)C(=O)CC(C)(C)C2` [Compound 10]: the “MAT2A inhibitory activity (in words)” value at MAT2A was “no detectable activity; also recorded: inactive”. The molecule further returned an IC50 in data set [1] of over 100 µM.
On to `COc1ccc(-c2c(Nc3ccccn3)[nH]c3c(C4=CCCCC4)c(-c4ccccc4)nn3c2=O)cc1` [AG-270, reference compound], for which, in data set [2], the “tumor growth inhibition (TGI)” value was determined as 80.4%, the “T/C (%) relative tumor proliferation rate” value stood at 22.9%, the Tumor volume worked out at 351.9 ± 96.1 mm3 and the “Histopathological analysis (H&E staining) of tumor tissues” value is given as “reduced cellular proliferation”.
As for `COc1ccc(NC(=O)c2cccc(-n3cccc3)c2)cc1` [Compound 17, N-(4-Methoxyphenyl)-3-(1H-pyrrol-1-Yl)benzamide], on MAT2A, the “Maximum Inhibition (%)” value amounted to 84% and the IC50 came to 0.43 ± 0.06 µM. Besides, the IC50 with MTAP−/− HCT116 cells came to 1.4 ± 0.3 µM. Besides, the IC50 with Parental HCT116 cells was over 10 µM. For the same molecule, in data set [2], the “tumor growth inhibition (TGI)” value is 58.4%, the “T/C (%) relative tumor proliferation rate” value is reported as 44.4%, the Tumor volume was 659.9 ± 100.2 mm3 and the “Histopathological analysis (H&E staining) of tumor tissues” value is reported as “reduced cellular proliferation”. Also, in data set [1], the half-inhibitory concentration (IC50) was over 100 µM.
For the molecule `CN(C)c1nc(=O)n(-c2ccccc2)c2cc(Cl)ccc12` [6 (AZ-28), AZ-28, reference compound], the IC50 with MTAP−/− HCT116 cells stood at 0.35 ± 0.13 µM; with Parental HCT116 cells it was 1.9 ± 0.2 µM.
With `CCOC(=O)c1[nH]c2c(c1Cc1ccccc1OC)C(=O)CC(c1ccc(OC)cc1)C2` (centres unmarked) [Compound A10], the “Maximum Inhibition (%)” value on MAT2A worked out at 65%. Besides, the figures for the IC50 (on MAT2A; in data set [1]) were 4.6 ± 0.3 µM and 55.6 ± 7.8 µM, respectively.
Turning to `COc1ccc(NC(=O)c2cn(C)c3ncccc23)cc1F` [Compound A11], the “Maximum Inhibition (%)” value on MAT2A was determined as 76%. For the same molecule, the IC50 is 4.6 µM and 2.5 µM against MAT2A; 6 ± 0.4 µM in the data set with MTAP−/− HCT116 cells; over 10 µM in the data set with Parental HCT116 cells; over 100 µM in data set [1].
Consider `COc1ccc(NC(=O)c2cccc(N3CCCCC3)c2)cc1` [Compound 18, N-(4-Methoxyphenyl)-3-(piperidin-1-Yl)benzamide], for which the “Maximum Inhibition (%)” value at MAT2A was determined as 72%. In addition, the IC50 is 0.78 ± 0.15 µM at MAT2A and over 100 µM in data set [1].
